Measurements from ChEMBL document CHEMBL1134177, “Non-peptidic, non-prenylic inhibitors of the prenyl protein-specific protease Rce1” (Bioorg Med Chem Lett, 2001).
Values belong to the molecule of their own block, whether it stands above or below them.

Tests used:
[1] = biological target: T1, CAAX prenyl protease 2 (Homo sapiens) (UniProt Q9Y256); experiment: Inhibition of recombinant prenyl protein-specific protease Rce1 in Sf9 cells at a concentration of 10 uM
T1 sequence (whole entry): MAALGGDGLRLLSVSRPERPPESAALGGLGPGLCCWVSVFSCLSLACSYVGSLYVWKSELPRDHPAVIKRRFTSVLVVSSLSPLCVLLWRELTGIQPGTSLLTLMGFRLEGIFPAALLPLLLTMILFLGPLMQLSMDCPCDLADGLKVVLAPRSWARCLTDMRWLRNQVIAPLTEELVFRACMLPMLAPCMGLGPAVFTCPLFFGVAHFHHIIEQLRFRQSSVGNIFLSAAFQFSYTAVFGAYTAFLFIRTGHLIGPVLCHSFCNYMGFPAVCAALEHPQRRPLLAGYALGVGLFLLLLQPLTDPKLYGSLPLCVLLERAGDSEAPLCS

CAAX prenyl protease 2 [2] = biological target: T2, CAAX prenyl protease 2 (Homo sapiens, UniProt Q9Y256); experiment: Inhibition of recombinant prenyl protein-specific protease Rcel expressed in Sf9 cells
T2 sequence (Q9Y256 whole entry): T1 sequence (whole entry)

[3] = biological target: Protein farnesyltransferase (Homo sapiens, UniProt P49354+P49356); experiment: Inhibitory activity against Farnesyltransferase; assay type: protein-complex assay
CAAX prenyl protease 2 [4] = biological target: T2, CAAX prenyl protease 2; experiment: Inhibition of recombinant prenyl protein-specific protease Rce1 expressed in Sf9 cells […]

SMILES: CCCCCCCCCCCCCCCC(=O)NCCC(=O)Nc1cccc(C(=O)Nc2cccc(C)c2C)c1
inhibition [1]: 11%

SMILES: CCCCCCCCCCCCCCCC(=O)N(C)CCC(=O)Nc1cccc(S(=O)(=O)Nc2cccc(C)c2C)c1
inhibition [1]: 22%

SMILES: CCCCCCCCCCCCCC(=O)NCCC(=O)Nc1cccc(S(=O)(=O)Nc2cccc(C)c2C)c1
inhibition [1]: < 5%

SMILES: CCCCCCCCCCCCCCCCCC(=O)NCCC(=O)Nc1cccc(S(=O)(=O)Nc2cccc(C)c2C)c1
inhibition [1]: < 5%
IC50 [3]: 2.5 µM

SMILES: CCCCCCCCCCCCCCCC(=O)NCCC(=O)Nc1ccc(C(=O)N[C@@H](CCSC)C(=O)OC)cc1
inhibition [1]: 15%

SMILES: CCCCCCCCCCCCCCCCC(=O)NCC(=O)Nc1cccc(S(=O)(=O)Nc2cccc(C)c2C)c1
IC50 (CAAX prenyl protease 2 [4]): 7 µM
IC50 [3]: 3.5 µM

SMILES: CCCCCCCCCCCCCCCC(=O)NCC(=O)Nc1ccc(C(=O)N[C@@H](CCSC)C(=O)OC)cc1
inhibition [1]: 22%

Continued, values first:

inhibition [1]: 28%
SMILES: CCCCCCCCCCCCCCCC(=O)NCCC(=O)Nc1ccc(S(=O)(=O)N[C@@H](CCSC)C(=O)OC)cc1

inhibition [1]: < 5%
SMILES: CCCCCCCCCCCCCCCC(=O)NCCC(=O)Nc1cccc(S(=O)(=O)Nc2cccc3ccccc23)c1

IC50 (CAAX prenyl protease 2 [2]): 14 µM
IC50 [3]: 3.8 µM
SMILES: CCCCC/C=C\C/C=C\CCCCCCCC(=O)NCCC(=O)Nc1cccc(S(=O)(=O)Nc2cccc(C)c2C)c1

IC50 (CAAX prenyl protease 2 [4]): 7 µM
IC50 [3]: 3.4 µM
SMILES: Cc1cccc(NS(=O)(=O)c2cccc(NC(=O)CCNC(=O)/C=C/c3ccc(-c4ccccc4)cc3)c2)c1C

inhibition [1]: 18%
SMILES: CCCCCCCCCCCCCCCC(=O)NCCC(=O)Nc1cccc(S(=O)(=O)Nc2cccc(C)c2C)c1

inhibition [1]: 21%
SMILES: CCCCCCCCCCCCCCC(=O)NCCCC(=O)Nc1cccc(S(=O)(=O)Nc2cccc(C)c2C)c1

inhibition [1]: 23%
SMILES: CCCCCCCCCCCCCCCC(=O)NCCC(=O)Nc1cccc(S(=O)(=O)NCCc2c[nH]c3ccccc23)c1

inhibition [1]: 20%
SMILES: CCCCCCCCCCCCCCCC(=O)NCCC(=O)Nc1cccc(S(=O)(=O)NCc2cccc3ccccc23)c1

inhibition [1]: < 5%
SMILES: CCCCCCCC/C=C\CCCCCCCC(=O)NCCC(=O)Nc1cccc(S(=O)(=O)Nc2cccc(C)c2C)c1
